The term IC50 denotes the midpoint of a concentration-inhibition curve.

This note sets out measurements from PubChem BioAssay AID488890 (Southern Research Specialized Biocontainment Screening …, 2010).

Inconclusive results are not listed. The source made the active and inactive calls. How the calls were made is not given here.

This assay relates to Mycobacterium tuberculosis non-replicating, growth inhibition. Description: growth inhibition of non-replicating M. tuberculosis (AID 488890).

Turning to `Cc1cc(C)c2c(=O)n(CC(=O)Nc3cccc(Cl)c3C)sc2n1`, the IC50 was 7.18 µM. `N/C(=N/OC(=O)c1ccc(Cl)cc1)c1ncc([N+](=O)[O-])s1`: the IC50 was 7.53 µM.

Consider `Cc1cccnc1NC(=O)COc1ccc2oc3c(c2c1)CCCC3`, for which the IC50 is 9.41 µM. As for `CCOC(=O)c1ccc(NC(=O)CCSCCc2ccccn2)cc1`, the IC50 was 23.4 µM (inactive). Regarding `COc1ccc2oc(=O)c(/C(C)=N/NC(=O)c3ccncc3)cc2c1`, the IC50 is 0.84 µM. For `O=C(OCc1ccc([N+](=O)[O-])cc1)c1cc2ccccc2oc1=O`, the IC50 is 12.5 µM (inactive). Turning to `Cc1cccc(NC(=O)COC(=O)CCc2c[nH]c3ccccc23)c1`, the IC50 is 1.94 µM.

Turning to `CN1/C(=C\C=N\NC(=O)c2cccnc2)C(C)(C)c2ccccc21`, the IC50 is 46.5 µM (inactive). Regarding `CCN(Cc1ccccc1)c1ccc(/C=N/N=C(N)N)cc1`, the IC50 was 5.74 µM.

Turning to `COc1cc(N=c2ssnc2Cl)cc(OC)c1`, the IC50 was 19.3 µM (inactive).

For `CCOC(=O)c1ccc(COC(=O)c2ccc(-c3nnc(-c4ccccc4)o3)cc2)o1`, the IC50 is 6.43 µM. Consider `O=C(Nc1ccccc1)c1nnsc1S(=O)c1ccc(Cl)cc1` (stereo unspecified), for which the IC50 was 0.34 µM. The value for `CC(C)c1ccc(C2=C(O)c3ccccc3C(=O)C2=O)cc1` was 3.7 µM; that for `CCCCCn1c(=O)c(C(=O)Nc2nc(CC(=O)OCC)cs2)c(O)c2ccccc21` was 2.39 µM; that for `Cc1nn(C)cc1/C=N/NC(=O)c1sc2ccccc2c1Cl` was 27.8 µM (inactive). The value for `COC(=O)C1=C(C)N(Cc2ccccc2)C(=NCc2ccccc2)N[C@H]1c1cccc(F)c1` was 6.37 µM. For `O=C(CNC(=O)c1cccc(F)c1)N/N=C/c1ccc([N+](=O)[O-])s1`, the IC50 was 10.6 µM (inactive).

Take `c1ccc(Cc2nnc(-c3ccccc3)o2)cc1`: the IC50 was 0.19 µM. Regarding `C=C1Cn2c(nnc2-c2ccc(Cl)cc2)S1`, the IC50 was 12.8 µM (inactive). Under `Cc1ccccc1NCC(=O)N/N=C\c1ccc([N+](=O)[O-])s1` stands 3.57 µM; under `Cc1cc(C(=O)NNc2ccc(Cl)cc2)no1`, 1.61 µM.

For `CNCc1ccccc1Sc1cc(O)ccc1O`, the IC50 was 5.19 µM. With `Cc1ccc(NC(=O)CC2SC3=NCCCN3C2=O)c(C)c1` (stereo unspecified), the IC50 was 18.8 µM (inactive). The value for `CCC1CCC(c2nnc(-c3ccc([N+](=O)[O-])cc3)o2)CC1` (stereo unspecified) was below 0.1 µM; that for `COc1ccc(N2C(=O)CC(Sc3nc4ccccc4s3)C2=O)cc1OC` (stereo unspecified) was 14.2 µM (inactive); that for `CCOC(=O)C1=C(C)C/C(=N\NC(=O)c2ccccc2O)CC1` was 4.22 µM. The value for `COc1ccc(/C=N/Nc2cc(C)nc3ccccc23)cc1` was 8.43 µM; that for `O=C(Nc1ncc([N+](=O)[O-])s1)c1ccc2c(c1)OCO2` was 4.75 µM. Under `Clc1ccc(CN2C3=NCCCN3c3ccccc32)cc1` stands 12.3 µM (inactive); under `CCOC(=O)N1CCC(NS(=O)(=O)c2cc3c(cc2Cl)NC(=O)CO3)CC1`, 4.67 µM. Take `CCOC(=O)C1CSC(CC(=O)Nc2ccc(Cl)c(Cl)c2)C(=O)N1` (stereo unspecified): the IC50 is 10.7 µM (inactive). Under `COc1cccc(CNCCc2c[nH]c3ccccc23)c1OCc1ccc(F)cc1` stands 16.9 µM (inactive); under `CCc1nnc(N/N=C/c2ccc(N3CCC(C)CC3)c([N+](=O)[O-])c2)n1N`, 3.83 µM; under `O=C(N/N=C(\c1ccccc1)c1ccccn1)c1cccc([N+](=O)[O-])c1`, 1.93 µM.

Turning to `CCCNC(=O)OCC12CC3CC(CC(C3)C1)C2`, the IC50 was 0.65 µM.

Consider `Cc1nn2c(NCCN(C)C)c3c(nc2c1-c1ccccc1)CCCC3`, for which the IC50 is 5.07 µM. For the molecule `N#CC1=C(c2ccccc2)/C(=C/c2ccccc2)OC1=O`, the IC50 is 2.82 µM. Regarding `CC(C)c1ccc(OCC(=O)NCc2ccccc2)cc1`, the IC50 is 19.2 µM (inactive).

As to `O=[N+]([O-])c1ccc(Nc2ccccc2O)c2nonc12`, the IC50 was 5.94 µM. The value for `c1ccc(CNCCC(Cc2ccccc2)c2ccco2)cc1` (stereo unspecified) was 21.6 µM (inactive). Regarding `CCc1ccc(N2CCN(CCNC(=O)Nc3ccc(OC)cc3)CC2)cc1`, the IC50 was 17.7 µM (inactive). For the molecule `CCC(C)n1nnc2c(=O)oc3ccccc3c21` (stereo unspecified), the IC50 is 5.63 µM. Under `O=C(COC(=O)c1ccccc1Br)Nc1ccccc1F` stands 14.7 µM (inactive). `O=C(COC(=O)c1ccc(Br)o1)NC1CCCCC1`: the IC50 was 9.79 µM. Take `Cc1ccc(C(C)C)c(OCC(=O)OCc2c(C)noc2C)c1`: the concentration for half-maximal inhibition (IC50) is 3.51 µM.

Take `Cc1ccc(N=N/C(=C\O)C(=O)c2ccncc2)cc1`: the IC50 was 10.1 µM (inactive). The value for `COC(=O)CCc1nc2c(C#N)c(-c3ccc(Cl)cc3)ccn2n1` was 24.3 µM (inactive); that for `O=C(NC(=S)N1CCN(Cc2ccc3c(c2)OCO3)CC1)c1ccc(Cl)cc1` was 33.4 µM (inactive). For the molecule `Cc1ccc(C(=O)COC(=O)c2cccs2)cc1`, the IC50 was 11 µM (inactive). Under `CCc1ccc(C(=O)NC2CCCCC2)s1` stands 0.94 µM.

In the case of `COc1ccc(NC(=O)c2cnc(SC)nc2)cc1`, the IC50 was 28.9 µM (inactive). The value for `O=C(COC(=O)CCN1C(=O)/C(=C\C=C\c2ccccc2)SC1=S)Nc1cc(F)ccc1F` was 13.9 µM (inactive); that for `CC1=NN(C(=O)c2ccccc2)C(O)(c2ccc(Br)cc2)C1` (stereo unspecified) was 0.62 µM; that for `CC1=C(C)/C(=N\OS(=O)(=O)c2ccccc2)C=CC1=O` was 1.47 µM. Regarding `O=C(Cn1cc([N+](=O)[O-])nc1[N+](=O)[O-])N1CCN(c2ccccc2)CC1`, the IC50 is 12.8 µM (inactive). The value for `COC(=O)c1ccc(OCC(=O)c2cccc(OC)c2)cc1` was 11 µM (inactive); that for `CCOC(=O)Cc1csc(NC(=O)COc2ccc3c(c2)CCC3)n1` was 13.5 µM (inactive).

Take `N#Cc1nc(-c2ccc(OCc3ccccc3)cc2)oc1NCCCn1ccnc1`: the IC50 was 15.4 µM (inactive). Under `Cc1cc(C)n(-c2nc(NCCCO)c3c4c(sc3n2)CCCC4)n1` stands 10.5 µM (inactive); under `CCOc1ccc(NC(=O)COC(=O)C2(C)CC2(Cl)Cl)c([N+](=O)[O-])c1` (stereo unspecified), 10.8 µM (inactive); under `CC1=NN(C(=O)c2ccc(C)o2)C(O)(c2ccccc2)C1` (stereo unspecified), 3.05 µM. The value for `CCn1c(NC(=O)c2nn(C)cc2Br)nc2ccccc21` was 4.97 µM; that for `COc1ccc2c(c1)sc(=N)n2C` was 19.3 µM (inactive); that for `CCc1nnc(N/N=C/c2c(F)cccc2Cl)n1N` was 15.3 µM (inactive). The value for `Cc1cc(C)c(C(=O)COC(=O)c2ccc([N+](=O)[O-])o2)cc1C` was 0.93 µM; that for `COC(=O)COc1ccc2c(=O)c(-c3ccccc3)coc2c1` was below 0.1 µM.

As for `Cc1ccccc1NC(=O)C1COc2ccccc2O1` (stereo unspecified), the IC50 was 9.25 µM.

With `CCOc1ccc(OCC(=O)Nc2ccc(OC)cc2)cc1`, the IC50 is 10.2 µM (inactive).

Take `CCn1c(-c2ccco2)nc2ccccc21`: the half-inhibitory concentration (IC50) is 8.99 µM. Under `CC(C)CN1C(=O)CC(Sc2ccccc2C(=O)O)C1=O` (stereo unspecified) stands 26.7 µM (inactive); under `O=C(NC1CCCC1)c1cc(-c2cccs2)on1`, 5.66 µM. The value for `CC1C/C(=N/NC(=O)c2cccc(F)c2)c2ccc(O)cc2C1` (stereo unspecified) was 14 µM (inactive); that for `CC1(c2nnc(-c3ccc(F)cc3)o2)CC(c2cccc(Cl)c2)=NO1` (stereo unspecified) was 2.9 µM; that for `CC[n+]1c(/C=C(\C)Nc2ccccc2)sc2ccccc21` was 6.34 µM. As to `N#Cc1cc(N)ccc1-n1cccc1`, the IC50 is 6.15 µM. Regarding `O=C(COC(=O)c1cc(Br)ccc1Cl)NC1CCCC1`, the IC50 is 4.84 µM. As for `CCOC(=O)C(C)Oc1cc(Cl)c(C=O)cc1OC` (stereo unspecified), the half-inhibitory concentration (IC50) is 8.06 µM.

Consider `O=C(Nc1ccccc1F)c1ccc([N+](=O)[O-])s1`, for which the half-maximal inhibitory concentration (IC50) is 0.78 µM. Under `COc1ccccc1N=Cc1nc(-c2ccccc2)oc1OC(C)=O` stands 19.6 µM (inactive); under `O=c1[nH]c2ccccc2c2oc(CCl)nc12`, 4.22 µM; under `c1ccc(-c2nc3c(ccc4ccccc43)[nH]2)nc1`, 17.8 µM (inactive). As to `O=C1/C(=C/c2cccs2)COc2ccccc21`, the IC50 is 13.9 µM (inactive). Under `CCOC(=O)COc1cc(O)c2c(=O)cc(-c3ccccc3)oc2c1` stands 0.44 µM; under `CCCNC(=O)NC(=O)COc1ccc2oc3ccccc3c2c1`, 5.09 µM. In the case of `COc1ccccc1NC(=O)CCN1CCN(c2ccc(Cl)cc2)CC1`, the IC50 was 24.2 µM (inactive). `CC1CCCN(CCSc2ccc(Cl)cc2)C1` (stereo unspecified): the IC50 was 5.18 µM. With `COc1ccc(/C(C)=N/Nc2ncc(Cl)cc2Cl)c(O)c1`, the IC50 was 4.51 µM. For `Cc1noc2ncnc(Sc3ccc(Br)cc3)c12`, the IC50 was 6.24 µM. The value for `COc1cccc(OCC(=O)NNC(=O)C(=O)Nc2cccc(C)c2)c1` was 6.72 µM. Under `COc1cc(/C=N/NC(=O)c2ccccn2)ccc1OC(=O)c1cccs1` stands 2.85 µM. The value for `C=C(C)C1CC=C(C)/C(=N/NC(=O)CNc2ccc(OCC)cc2)C1` (stereo unspecified) was > 25 µM (inactive); that for `O=[N+]([O-])c1cc(N=Nc2ccc3ccccc3c2)ccc1O` was 10.2 µM (inactive). Regarding `c1ccc(Nc2nc(Nc3ccccc3)nc(N3CCNCC3)n2)cc1`, the IC50 is 12 µM (inactive). On to `COCCn1c(C)cc(C(=O)COC(=O)c2ccc(Br)o2)c1C`, for which the IC50 was 43.8 µM (inactive). The value for `NC(N)=N/N=C/c1cc([N+](=O)[O-])ccc1O` was 4.29 µM; that for `COc1ccc(OCCOC(=O)c2cccs2)cc1` was 27.6 µM (inactive). For `O=C(NC(=S)N1CCN(C/C=C/c2ccccc2)CC1)c1ccco1`, the IC50 was 36.1 µM (inactive). The value for `N=C1/C(=C/c2ccc(OC(=O)c3ccco3)cc2)C(=O)N=C2SC=CN12` was 5.02 µM; that for `Cc1cc(Br)ccc1OCCCCN1CCCCC1` was 14.4 µM (inactive). Under `O=C(Nc1ccc(Cl)cc1Cl)c1cccc(N2C(=O)C=CC2=O)c1` stands 11.6 µM (inactive); under `Cc1cc2ncn(/N=C/c3ccc([N+](=O)[O-])s3)c2cc1C`, 1.09 µM.
